Calls of active or inactive are those of the source. The calls are words filed in the database; no cut-off is given here.
Tests used:
[1] = Oral bioavailability in BALB/c mouse at 10 mg/kg,po measured upto 24 hrs by LC-MS/MS analysis; type: ADME, organism-based; settings: in vivo
[2] = Toxicity in BALB/c mouse xenografted with human BXPC-3 cells assessed as effect on lung at 30 mg/kg,po administrated once daily for 8 weeks by H and E staining based microscopic analysis; type: organism-based; settings: in vivo, 1344 h
[3] = biological target: T1, Signal transducer and activator of transcription 3 (Homo sapiens, UniProt P40763); assay: Inhibition of STAT3 in human BXPC-3 cells assessed as reduction of c-Myc expression at 1 to 30 nM incubated for 22 to 24 hrs by western blot analysis; type: cell-based; settings: dose 1-30 nM, time 22-24 hrs, DDE = dose-dependent effect
T1 sequence (P40763 whole entry): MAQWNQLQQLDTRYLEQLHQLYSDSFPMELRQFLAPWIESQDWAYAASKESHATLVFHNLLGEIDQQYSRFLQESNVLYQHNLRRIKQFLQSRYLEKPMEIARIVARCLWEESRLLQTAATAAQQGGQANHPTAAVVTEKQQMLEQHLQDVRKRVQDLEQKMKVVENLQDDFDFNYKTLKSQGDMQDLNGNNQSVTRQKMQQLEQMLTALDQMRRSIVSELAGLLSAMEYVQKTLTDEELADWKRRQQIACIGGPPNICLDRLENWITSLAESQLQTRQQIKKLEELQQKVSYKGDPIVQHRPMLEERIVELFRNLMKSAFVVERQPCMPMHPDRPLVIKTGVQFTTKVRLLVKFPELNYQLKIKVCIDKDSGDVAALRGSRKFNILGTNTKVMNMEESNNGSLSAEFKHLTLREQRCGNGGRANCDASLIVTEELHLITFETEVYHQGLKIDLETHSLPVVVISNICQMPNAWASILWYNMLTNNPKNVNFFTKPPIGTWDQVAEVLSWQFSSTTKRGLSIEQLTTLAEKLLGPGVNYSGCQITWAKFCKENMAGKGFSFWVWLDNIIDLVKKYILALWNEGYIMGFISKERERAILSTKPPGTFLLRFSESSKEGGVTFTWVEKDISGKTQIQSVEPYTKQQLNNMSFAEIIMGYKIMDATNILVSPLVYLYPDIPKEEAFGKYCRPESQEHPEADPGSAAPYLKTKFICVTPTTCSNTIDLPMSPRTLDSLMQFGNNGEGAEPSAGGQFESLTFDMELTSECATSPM

[4] = Toxicity in BALB/c mouse xenografted with human BXPC-3 cells assessed as body weight change at 10 mg/kg,po administrated once daily for 8 weeks; type: organism-based; settings: in vivo, 1344 h
[5] = tested on: BXPC-3; assay: Antitumor activity against human BXPC-3 cells xenografted BALB/c mouse model assessed as reduction in Ki67 expression at 30 mg/kg,po administrated once daily for 8 weeks by immunohistochemical analysis; type: functional, organism-based
[6] = biological target: T1, Signal transducer and activator of transcription 3; assay: Inhibition of STAT3 in human BXPC-3 cells assessed as inhibition of STAT3 phosphorylation at Tyr 705 at 1 to 30 nM incubated for 22 to 24 hrs by western blot analysis; type: cell-based; settings: dose 1-30 nM, time 22-24 hrs, DDE = dose-dependent effect
[7] = biological target: T2, Cytochrome P450 1A2 (Homo sapiens, UniProt P05177); assay: Inhibition of CYP1A2 in human liver microsomes using phenacetin as substrate incubated for 30 mins in presence of NADPH by HPLC analysis; type: ADME, Microsome
T2 sequence (P05177 whole entry): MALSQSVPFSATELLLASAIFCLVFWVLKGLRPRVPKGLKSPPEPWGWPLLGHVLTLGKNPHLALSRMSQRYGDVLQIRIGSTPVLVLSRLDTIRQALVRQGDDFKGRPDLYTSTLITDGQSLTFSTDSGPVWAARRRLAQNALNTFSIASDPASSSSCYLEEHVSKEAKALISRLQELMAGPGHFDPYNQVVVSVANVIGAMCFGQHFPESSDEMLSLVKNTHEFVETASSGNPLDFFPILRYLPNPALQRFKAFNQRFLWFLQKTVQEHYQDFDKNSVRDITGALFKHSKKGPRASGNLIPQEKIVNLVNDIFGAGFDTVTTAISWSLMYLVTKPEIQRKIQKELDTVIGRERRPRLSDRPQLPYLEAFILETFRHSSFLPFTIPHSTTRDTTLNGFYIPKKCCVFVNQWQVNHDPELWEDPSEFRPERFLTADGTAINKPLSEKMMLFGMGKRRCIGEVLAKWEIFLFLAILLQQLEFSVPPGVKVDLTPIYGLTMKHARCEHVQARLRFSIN

[8] = tested on: PC-3; assay: Anti-proliferative activity against human PC-3 cells assessed as cell growth inhibition incubated for 72 hrs by MTS assay; type: functional, cell-based; settings: PC-3, 72 h
[9] = tested on: BXPC-3; assay: Antitumor activity against human BXPC-3 cells xenografted BALB/c mouse model assessed as tumor growth inhibition at 10 mg/kg,po administrated once daily for 8 weeks; type: functional; settings: BXPC-3, 1344 h, read-out: TGI
[10] = biological target: T1, Signal transducer and activator of transcription 3; assay: Thermal stabilization of STAT3 in human BXPC-3 cells at 10 microM at 44.6 degreeC incubated for 1 hrs by cellular thermal shift assay; type: cell-based
[11] = biological target: T1, Signal transducer and activator of transcription 3; assay: Inhibition of STAT3 in human BXPC-3 cells assessed as reduction of Cyclin D1 expression at 30 nM incubated for 4 to 24 hrs by western blot analysis; type: cell-based; settings: time 4-24 hrs, TDE = time-dependent effect
[12] = biological target: T1, Signal transducer and activator of transcription 3; assay: Thermal stabilization of STAT3 in human BXPC-3 cells at 10 microM at 47.4 degreeC incubated for 1 hrs by cellular thermal shift assay; type: cell-based
[13] = Microsomal stability in rat liver microsomes assessed as intrinsic clearance incubated upto 40 mins in presence of NADPH by LC-MS/MS analysis; type: ADME, Microsome; settings: read-out: CLH
[14] = tested on: BXPC-3; assay: Inhibition of colony formation in human BXPC-3 cells at 3 to 10 nM incubated for 5 to 7 days by crystal violet staining assay; type: functional, cell-based; settings: dose 3-10 nM, time 5-7 day, DDE = dose-dependent effect
[15] = biological target: T1, Signal transducer and activator of transcription 3; assay: Inhibition of STAT3 in human HEK293T cells assessed as inhibition of IL-6 stimulated STAT3 phosphorylation by dual-luciferase reporter assay; type: cell-based
[16] = tested on: CFPAC-1; assay: Inhibition of mitochondrial respiration in human CFPAC-1 cells assessed as reduction in basal respiration rate at 1 to 30 nM incubated for 1 hr by seahorse XF96 flux analyzer; type: functional, cell-based; settings: dose 1-30 nM, DDE = dose-dependent effect
[17] = tested on: PC-3; assay: Inhibition of colony formation in human PC-3 cells at 1000 nM incubated for 5 to 7 days by crystal violet staining assay; type: functional, cell-based; settings: time 5-7 day
[18] = Microsomal stability in dog liver microsomes assessed as intrinsic clearance incubated upto 40 mins in presence of NADPH by LC-MS/MS analysis; type: ADME, Canis lupus familiaris, Microsome; settings: read-out: CLH
[19] = Microsomal stability in dog liver microsomes assessed as half life incubated upto 40 mins in presence of NADPH by LC-MS/MS analysis; type: ADME, Canis lupus familiaris, Microsome
[20] = biological target: T1, Signal transducer and activator of transcription 3; assay: Inhibition of STAT3 in human Capan-2 cells assessed as reduction of c-Myc expression at 1 to 30 nM incubated for 22 to 24 hrs by western blot analysis; type: cell-based; settings: dose 1-30 nM, time 22-24 hrs, DDE = dose-dependent effect
[21] = biological target: T1, Signal transducer and activator of transcription 3; assay: Inhibition of STAT3 in human BXPC-3 cells assessed as inhibition of STAT3 phosphorylation at Ser 727 at 1 to 30 nM incubated for 22 to 24 hrs by western blot analysis; type: cell-based; settings: dose 1-30 nM, time 22-24 hrs, DDE = dose-dependent effect
[22] = biological target: Cytochrome P450 3A4 (Homo sapiens, UniProt P08684); assay: Inhibition of CYP3A4 in human liver microsomes using testosterone as substrate in presence of NADPH by HPLC analysis; type: ADME, Microsome
Chain of Cytochrome P450 3A4 (P08684 whole entry): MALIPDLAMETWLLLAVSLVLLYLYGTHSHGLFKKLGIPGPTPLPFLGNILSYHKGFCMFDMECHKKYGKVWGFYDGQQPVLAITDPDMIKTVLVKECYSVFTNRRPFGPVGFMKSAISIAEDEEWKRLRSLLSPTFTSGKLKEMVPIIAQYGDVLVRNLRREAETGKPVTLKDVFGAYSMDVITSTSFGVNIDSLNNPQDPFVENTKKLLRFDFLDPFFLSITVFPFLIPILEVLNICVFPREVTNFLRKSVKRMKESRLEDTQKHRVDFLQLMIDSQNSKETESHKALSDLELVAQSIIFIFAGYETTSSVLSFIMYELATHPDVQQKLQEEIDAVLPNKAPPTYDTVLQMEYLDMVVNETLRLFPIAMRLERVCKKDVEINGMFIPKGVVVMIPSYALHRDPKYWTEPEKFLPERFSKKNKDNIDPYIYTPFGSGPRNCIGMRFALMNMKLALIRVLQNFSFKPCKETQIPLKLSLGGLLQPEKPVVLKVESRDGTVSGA

[23] = MRT (0 to last) in BALB/c mouse at 10 mg/kg,po measured upto 24 hrs by LC-MS/MS analysis; type: ADME, organism-based; settings: in vivo
[24] = Microsomal stability in rat liver microsomes assessed as half life incubated upto 40 mins in presence of NADPH by LC-MS/MS analysis; type: ADME, Microsome
[25] = tested on: Mus musculus; assay: In vivo inhibition of STAT3 in BALB/c mouse xenografted with human BXPC-3 cells assessed as inhibition of STAT3 phosphorylation at Tyr 705 at 10 mg/kg,po administrated once daily for 8 weeks by immunohistochemical analysis; type: functional, organism-based
[26] = biological target: T1, Signal transducer and activator of transcription 3; assay: Inhibition of STAT3 in human BXPC-3 cells assessed as inhibition of IL-6 stimulated nuclear STAT3 phosphorylation at Tyr 705 at 1 to 30 nM by western blot assay; type: cell-based; settings: dose 1-30 nM
[27] = tested on: Mus musculus; assay: In vivo inhibition of STAT3 in BALB/c mouse xenografted with human BXPC-3 cells assessed as inhibition of STAT3 phosphorylation at Ser 727 at 10 mg/kg,po administrated once daily for 8 weeks by immunohistochemical analysis; type: functional, organism-based
[28] = Toxicity in BALB/c mouse xenografted with human BXPC-3 cells assessed as effect on liver at 10 mg/kg,po administrated once daily for 8 weeks by H and E staining based microscopic analysis; type: organism-based; settings: in vivo, 1344 h
[29] = biological target: T1, Signal transducer and activator of transcription 3; assay: Inhibition of STAT3 in human Capan-2 cells assessed as reduction of Cyclin D1 expression at 30 nM incubated for 4 to 24 hrs by western blot analysis; type: cell-based; settings: time 4-24 hrs, TDE = time-dependent effect

Compound: COc1ccc(-c2noc(-c3cnc(Oc4ccc5cc(C(=O)N6CCN(Cc7ccc(OCC(F)(F)F)cc7)CC6)n(C)c5c4)cn3)n2)cc1
- bioavailability [1]: 29.1%
- Activity [2]: Non-Toxic
- inhibition [3]: Dde
- Activity [4]: Non-Toxic
- Activity [5]: Active
- inhibition [6]: Dde
- IC50 [7]: > 50 µM
- IC50 [8]: > 1 µM
- inhibition in vivo at 10 mg/kg [9]: 69.2%
- Activity [10]: Active
- inhibition [11]: Tde
- Activity [12]: Active
- microsomal CLint [13]: 16.9 µL/min/mg
- inhibition [14]: Dde
- IC50 [15]: 0.0053 µM
- inhibition [16]: Dde
- inhibition [17]: Active
- microsomal CLint [18]: 18.4 µL/min/mg
- half-life [19]: 1.25 h
- inhibition [20]: Dde
- inhibition [21]: Dde
- IC50 [22]: > 50 µM
- MRT last at 24 h [23]: 9.8 h
- half-life [24]: 1.37 h
- inhibition [25]: Active
- inhibition [26]: Active
- inhibition [27]: Active
- Activity [28]: Non-Toxic
- inhibition [29]: Tde
